Results from PubChem BioAssay AID1845194 (Molecular Pharmacology Branch, DTP, NCI, 2023).

Tested on: 287954-098-R-J1 tumor spheroid viability
Assay: Anticancer human tumor 287954-098-R-J1 patient-derived Ewing sarcoma cell line growth inhibition
Settings: spheroids with HUVEC and MSC; for IC50: curve of first compound; for viability, T/C: stronger effect = lower value
Text: Multicellular complex tumor spheroid response to DNA repair inhibitors in combination with DNA-damaging drugs
This study explores the anticancer activities of DNA-damaging drugs and inhibitors of DNA damage repair, both as single agents and in combinations. Complex tumor spheroids comprised of malignant cells, endothelial cells and mesenchymal stem cells served as an in vitro model for human solid tumors. This model system incorporates physiologically relevant features and patient-derived or established malignant cell lines with clinically relevant genetic alterations from many tumor types. Twenty-six patient-derived or established malignant cell lines were evaluated representing sarcoma, melanoma, small cell lung cancer (SCLC), non-small cell lung cancer (NSCLC), as well as bladder, ovarian and pancreatic cancers. The concentration ranges selected for each drug and investigational agent were based upon clinically achievable concentrations if the clinical Cmax of the agent was known.
Compounds. The drugs and compounds olaparib (NSC753686), talazoparib (NSC767125), berzosertib (NSC777718), elimusertib (NSC800525), nedisertib (NSC802822), VX-984 (NSC792969), AZD-1390 (NSC803789), temozolomide (NSC362856), topotecan (NSC609699), trabectedin (NSC813783), staurosporine (NSC755774), and gemcitabine (NSC613327) were obtained from the National Cancer Institute (NCI) Developmental Therapeutics Program Chemical Repository. The FDA-approved anticancer drug set is available from the Developmental Therapeutics Program at https://dtp.cancer.gov/organization/dscb/obtaining/available_plates.htm. […] The stock solutions were prepared in dimethyl sulfoxide (DMSO, Sigma-Aldrich, St. Louis, MO, cat. D2650) at 400-fold the tested concentration and stored at -70 degrees C. Prior to their use, the stock solutions were diluted in fresh medium and the final DMSO concentration in the assay was 0.25% (v/v). All drugs and investigational agents were tested over a range starting from a high concentration at or near the clinical Cmax and decreasing in half-log increments. If the clinical Cmax for an agent had not been determined, the highest concentration tested was 10 microM.
Cell Lines. The patient-derived cancer cell (PDC) lines: 156681-154-R-J1-PDC, 283228-195-R-J1-PDC, 287954-098-R-J1-PDC, 292921-168-R-J2-PDC, 349418-098-R-PDC, 425362-245-T-J1-PDC, 556581-035-R-J1-PDC, and BL0293-F563-PDC were received from the NCI Patient-Derived Models Repository (PDMR, https://pdmr.cancer.gov). The established cell lines HS-SY-2 (RRID:CVCL_8719), MPNST, and SYO-1 (RRID:CVCL_7146) were obtained from the Sloan Kettering Institute. The alveolar soft parts sarcoma cell line ASPS-1 (RRID:CVCL_S738) was established at the NCI and grown from internal seed stocks. The following established cell lines were purchased from the American Type Culture Collection (ATCC, Manassas, VA): G-401 (ATCC, cat. CRL-1441, RRID:CVCL_0270), SW982 (ATCC, cat. HTB-93, RRID:CVCL_1734), VA-ES-BJ (ATCC, cat. CRL-2138, RRID:CVCL_1785), NCI-H719 (ATCC, cat. CRL-5837, RRID:CVCL_1582), NCI-H196 (ATCC, cat. CRL-5823, RRID:CVCL_1509), NCI-H841 (ATCC, cat. CRL-5845, RRID:CVCL_1595), NCI-H1618 (ATCC, cat. CRL-5879, RRID:CVCL_1480), NCI-H1876 (ATCC, cat. CRL-5902, RRID:CVCL_1503), DMS 114 (ATCC, cat. CRL-2066; RRID:CVCL_1174), NCI-H211 (ATCC, cat. CRL-5824; RRID:CVCL_1529), and SW 1271 (ATCC, cat. CRL-2177, RRID:CVCL_1716). The small cell lung cancer cell line COR-L88 was purchased from Sigma-Aldrich (cat. 92031917-1VL, RRID:CVCL_1141). The non-small cell lung cancer cell lines NCI-H226 (RRID:CVCL_1544) and NCI-H322M (RRID:CVCL_1557) were established at the NCI and grown from internal seed stocks. Pooled donor human umbilical vein endothelial cells (HUVEC, Lonza, cat. CC-2519) and human mesenchymal stem cells (hMSC, Lonza, cat. PT-2501) were purchased from Lonza (Walkersville, MD).
Cell Culture. All cells were maintained in an incubator at 37 degrees C and 5% CO2 with 95% humidity. […]
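Also: spheroids exposed to compound for 7 days before viability readout.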
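For viability, T/C in this document: luminescent signal taken as surrogate of viable cell content; 100% = DMSO vehicle control viability and lower means growth inhibition.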

Structure (SMILES): Cc1cc(C)c(CNC(=O)c2cc(-c3ccc(CN4CCOCC4)cc3)cc3c2cnn3C2CCCC2)c(=O)[nH]1 + CC[C@@]1(O)C(=O)OCc2c1cc1n(c2=O)Cc2cc3c(CN(C)C)c(O)ccc3nc2-1
- IC50 (second compound 0.003 µM): > 10000 nM
- IC50 (second compound 0.00949 µM): > 10000 nM
- IC50 (second compound 0.03 µM): < 31.6 nM
- IC50 (second compound 0.0949 µM): < 31.6 nM
- IC50 (second compound 0.3 µM): < 31.6 nM
- viability, T/C (second compound 0.003 µM, first compound 0.0316 µM): 104%
- viability, T/C (second compound 0.003 µM, first compound 0.1 µM): 106%
- viability, T/C (second compound 0.003 µM, first compound 0.316 µM): 98.6%
- viability, T/C (second compound 0.003 µM, first compound 1 µM): 96.5%
- viability, T/C (second compound 0.003 µM, first compound 3.16 µM): 102%
- viability, T/C (second compound 0.003 µM, first compound 10 µM): 119%
- viability, T/C (second compound 0.00949 µM, first compound 0.0316 µM): 100%
- viability, T/C (second compound 0.00949 µM, first compound 0.1 µM): 114%
- viability, T/C (second compound 0.00949 µM, first compound 0.316 µM): 102%
- viability, T/C (second compound 0.00949 µM, first compound 1 µM): 108%
- viability, T/C (second compound 0.00949 µM, first compound 3.16 µM): 104%
- viability, T/C (second compound 0.00949 µM, first compound 10 µM): 104%
- viability, T/C (second compound 0.03 µM, first compound 0.0316 µM): 12.5%
- viability, T/C (second compound 0.03 µM, first compound 0.1 µM): 42.9%
- viability, T/C (second compound 0.03 µM, first compound 0.316 µM): 21.1%
- viability, T/C (second compound 0.03 µM, first compound 1 µM): 36.1%
- viability, T/C (second compound 0.03 µM, first compound 3.16 µM): 28.2%
- viability, T/C (second compound 0.03 µM, first compound 10 µM): 18.9%
- viability, T/C (second compound 0.0949 µM, first compound 0.0316 µM): 2.57%
- viability, T/C (second compound 0.0949 µM, first compound 0.1 µM): 2.37%
- viability, T/C (second compound 0.0949 µM, first compound 0.316 µM): 2.24%
- viability, T/C (second compound 0.0949 µM, first compound 1 µM): 2.24%
- viability, T/C (second compound 0.0949 µM, first compound 3.16 µM): 2.58%
- viability, T/C (second compound 0.0949 µM, first compound 10 µM): 2.04%
- viability, T/C (second compound 0.3 µM, first compound 0.0316 µM): 2.22%
- viability, T/C (second compound 0.3 µM, first compound 0.1 µM): 2.08%
- viability, T/C (second compound 0.3 µM, first compound 0.316 µM): 2.15%
- viability, T/C (second compound 0.3 µM, first compound 1 µM): 2.38%
- viability, T/C (second compound 0.3 µM, first compound 3.16 µM): 2.39%
- viability, T/C (second compound 0.3 µM, first compound 10 µM): 1.61%

Structure (SMILES): CNCc1ccc(-c2cc(-c3nc(-c4ccc(S(=O)(=O)C(C)C)cc4)cnc3N)on2)cc1 + CC[C@@]1(O)C(=O)OCc2c1cc1n(c2=O)Cc2cc3c(CN(C)C)c(O)ccc3nc2-1
- IC50 (second compound 0.003 µM): 198 nM
- IC50 (second compound 0.00949 µM): 158 nM
- IC50 (second compound 0.03 µM): < 9.49 nM
- IC50 (second compound 0.0949 µM): < 9.49 nM
- IC50 (second compound 0.3 µM): < 9.49 nM
- viability, T/C (second compound 0.003 µM, first compound 0.00949 µM): 109%
- viability, T/C (second compound 0.003 µM, first compound 0.03 µM): 93.4%
- viability, T/C (second compound 0.003 µM, first compound 0.0949 µM): 108%
- viability, T/C (second compound 0.003 µM, first compound 0.3 µM): 19.7%
- viability, T/C (second compound 0.003 µM, first compound 0.949 µM): 0.19%
- viability, T/C (second compound 0.003 µM, first compound 3 µM): 0.31%
- viability, T/C (second compound 0.00949 µM, first compound 0.00949 µM): 103%
- viability, T/C (second compound 0.00949 µM, first compound 0.03 µM): 114%
- viability, T/C (second compound 0.00949 µM, first compound 0.0949 µM): 89.3%
- viability, T/C (second compound 0.00949 µM, first compound 0.3 µM): 0.67%
- viability, T/C (second compound 0.00949 µM, first compound 0.949 µM): 0.1%
- viability, T/C (second compound 0.00949 µM, first compound 3 µM): 0.26%
- viability, T/C (second compound 0.03 µM, first compound 0.00949 µM): 19.1%
- viability, T/C (second compound 0.03 µM, first compound 0.03 µM): 3.38%
- viability, T/C (second compound 0.03 µM, first compound 0.0949 µM): 2.05%
- viability, T/C (second compound 0.03 µM, first compound 0.3 µM): 0.64%
- viability, T/C (second compound 0.03 µM, first compound 0.949 µM): 0.05%
- viability, T/C (second compound 0.03 µM, first compound 3 µM): 0.26%
- viability, T/C (second compound 0.0949 µM, first compound 0.00949 µM): 2.1%
- viability, T/C (second compound 0.0949 µM, first compound 0.03 µM): 2.08%
- viability, T/C (second compound 0.0949 µM, first compound 0.0949 µM): 2.28%
- viability, T/C (second compound 0.0949 µM, first compound 0.3 µM): 0.97%
- viability, T/C (second compound 0.0949 µM, first compound 0.949 µM): 0.06%
- viability, T/C (second compound 0.0949 µM, first compound 3 µM): 0.3%
- viability, T/C (second compound 0.3 µM, first compound 0.00949 µM): 2.14%
- viability, T/C (second compound 0.3 µM, first compound 0.03 µM): 2.11%
- viability, T/C (second compound 0.3 µM, first compound 0.0949 µM): 2.27%
- viability, T/C (second compound 0.3 µM, first compound 0.3 µM): 1.94%
- viability, T/C (second compound 0.3 µM, first compound 0.949 µM): 0.24%
- viability, T/C (second compound 0.3 µM, first compound 3 µM): 0.43%
